Read-outs that look alike come from different tables or passages of the source.
Key:
[1] = test system: paddy rice; test: Test Example 1: pot test on selectivity, inhibition of paddy rice; format: in vivo; settings: for inhibition at 750 g/ha / inhibition at 1500 g/ha / inhibition at 3000 g/ha / inhibition at 6000 g/ha / inhibition at 9000 g/ha: Oryza sativa, 720 h; for inhibition at 750 g/ha / inhibition at 1500 g/ha / inhibition at 3000 g/ha / inhibition at 6000 g/ha / inhibition at 9000 g/ha / Inhibition (%) by treatment at 1-leaf stage, paddy rice / Inhibition (%) by treatment at 5-leaf stage, paddy rice: dry weight 30 days after treatment; for selectivity to paddy rice: trans-form, cis-form and mixtures compared
Outline: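 Alluvial paddy soil in pots sown with Echinochloa crus-galli var. oryzicola (50 seeds) and paddy rice (30 seeds), submerged about 1 cm. Dry weights taken 30 days after chemical treatment; inhibition rate calculated relative to untreated area.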

[2] = test system: Echinochloa crus-galli var. oryzicola; test: Test Example 1: pot test on selectivity, inhibition of Echinochloa crus-galli var. oryzicola; format: in vivo; settings: for inhibition at 750 g/ha / inhibition at 1500 g/ha / inhibition at 3000 g/ha / inhibition at 6000 g/ha / inhibition at 9000 g/ha: Echinochloa crus-galli, 720 h; for inhibition at 1500 g/ha: 150 g/10 are; for inhibition at 3000 g/ha: 300 g/10 are; for inhibition at 6000 g/ha: 600 g/10 are; for inhibition at 9000 g/ha: 900 g/10 are; for activity for killing Echinochloa spp.: trans-form, cis-form and mixtures compared
Outline: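 Paddy soil pots were sown with 50 barnyard grass and 30 rice seeds under about 1 cm flooding, and emulsion at set concentrations was dripped in at the weed's 1-leaf and 5-leaf stages. After 30 days, dry weights of weed and rice gave inhibition versus untreated.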

[3] = 75 g/10 are, 1-leaf stage, read-out: Inhibition (%) by treatment at 1-leaf stage, paddy rice
[4] = 75 g/10 are, 5-leaf stage, read-out: Inhibition (%) by treatment at 5-leaf stage, paddy rice
[5] = 150 g/10 are, 1-leaf stage, read-out: Inhibition (%) by treatment at 1-leaf stage, paddy rice
[6] = 150 g/10 are, 5-leaf stage, read-out: Inhibition (%) by treatment at 5-leaf stage, paddy rice
[7] = 300 g/10 are, 1-leaf stage, read-out: Inhibition (%) by treatment at 1-leaf stage, paddy rice
[8] = 300 g/10 are, 5-leaf stage, read-out: Inhibition (%) by treatment at 5-leaf stage, paddy rice
[9] = 600 g/10 are, 1-leaf stage, read-out: Inhibition (%) by treatment at 1-leaf stage, paddy rice
[10] = 600 g/10 are, 5-leaf stage, read-out: Inhibition (%) by treatment at 5-leaf stage, paddy rice
[11] = 900 g/10 are, 1-leaf stage, read-out: Inhibition (%) by treatment at 1-leaf stage, paddy rice
[12] = 900 g/10 are, 5-leaf stage, read-out: Inhibition (%) by treatment at 5-leaf stage, paddy rice
[13] = 75 g/10 are, 1-leaf stage, dry weight 30 days after treatment, read-out: Inhibition (%) by treatment at 1-leaf stage, E. crus-galli var. oryzicola
[14] = 75 g/10 are, 5-leaf stage, dry weight 30 days after treatment, read-out: Inhibition (%) by treatment at 5-leaf stage, E. crus-galli var. oryzicola
[15] = 1-leaf stage, dry weight 30 days after treatment, read-out: Inhibition (%) by treatment at 1-leaf stage, E. crus-galli var. oryzicola
[16] = 5-leaf stage, dry weight 30 days after treatment, read-out: Inhibition (%) by treatment at 5-leaf stage, E. crus-galli var. oryzicola

C/C=C\COc1ccc(NC(=O)N(C)C)cc1 [cis-form, 3-(4-cis-crotyloxyphenyl)-1,1-dimethyl urea]
inhibition at 750 g/ha [1, 3]: 0%
inhibition at 750 g/ha [1, 4]: 0%
inhibition at 1500 g/ha [1, 5]: 0%
inhibition at 1500 g/ha [1, 6]: 0%
inhibition at 3000 g/ha [1, 7]: 0%
inhibition at 3000 g/ha [1, 8]: 0%
inhibition at 6000 g/ha [1, 9]: 0%
inhibition at 6000 g/ha [1, 10]: 0%
inhibition at 9000 g/ha [1, 11]: 3%
inhibition at 9000 g/ha [1, 12]: 0%
selectivity to paddy rice [1]: equivalent
inhibition at 750 g/ha [2, 13]: 95%
inhibition at 750 g/ha [2, 14]: 82%
inhibition at 1500 g/ha [2, 15]: 100%
inhibition at 1500 g/ha [2, 16]: 100%
inhibition at 3000 g/ha [2, 15]: 100%
inhibition at 3000 g/ha [2, 16]: 100%
inhibition at 6000 g/ha [2, 15]: 100%
inhibition at 6000 g/ha [2, 16]: 100%
inhibition at 9000 g/ha [2, 15]: 100%
inhibition at 9000 g/ha [2, 16]: 100%
activity for killing Echinochloa spp. [2]: equivalent

CC=CCOc1ccc(NC(=O)N(C)C)cc1 [Mixture of trans- and cis-forms 1:1]
Inhibition (%) by treatment at 1-leaf stage, paddy rice ([1]; 75 g/10 are, 1-leaf stage): 0%
Inhibition (%) by treatment at 5-leaf stage, paddy rice ([1]; 75 g/10 are, 5-leaf stage): 0%
Inhibition (%) by treatment at 1-leaf stage, paddy rice ([1]; 150 g/10 are, 1-leaf stage): 0%
Inhibition (%) by treatment at 5-leaf stage, paddy rice ([1]; 150 g/10 are, 5-leaf stage): 0%
Inhibition (%) by treatment at 1-leaf stage, paddy rice ([1]; 300 g/10 are, 1-leaf stage): 0%
Inhibition (%) by treatment at 5-leaf stage, paddy rice ([1]; 300 g/10 are, 5-leaf stage): 0%
Inhibition (%) by treatment at 1-leaf stage, paddy rice ([1]; 600 g/10 are, 1-leaf stage): 0%
Inhibition (%) by treatment at 5-leaf stage, paddy rice ([1]; 600 g/10 are, 5-leaf stage): 0%
Inhibition (%) by treatment at 1-leaf stage, paddy rice ([1]; 900 g/10 are, 1-leaf stage): 3%
Inhibition (%) by treatment at 5-leaf stage, paddy rice ([1]; 900 g/10 are, 5-leaf stage): 0%
Inhibition (%) by treatment at 1-leaf stage, E. crus-galli var. oryzicola ([2]; 75 g/10 are, 1-leaf stage, dry weight 30 days after treatment): 96%
Inhibition (%) by treatment at 5-leaf stage, E. crus-galli var. oryzicola ([2]; 75 g/10 are, 5-leaf stage, dry weight 30 days after treatment): 83%

C/C=C/COc1ccc(NC(=O)N(C)C)cc1 [trans-form, 3-(4-trans-crotyloxyphenyl)-1,1-dimethyl urea]
inhibition at 750 g/ha [1, 3]: 0%
inhibition at 750 g/ha [1, 4]: 0%
inhibition at 1500 g/ha [1, 5]: 0%
inhibition at 1500 g/ha [1, 6]: 0%
inhibition at 3000 g/ha [1, 7]: 0%
inhibition at 3000 g/ha [1, 8]: 0%
inhibition at 6000 g/ha [1, 9]: 0%
inhibition at 6000 g/ha [1, 10]: 0%
inhibition at 9000 g/ha [1, 11]: 2%
inhibition at 9000 g/ha [1, 12]: 0%
selectivity to paddy rice [1]: equivalent
inhibition at 750 g/ha [2, 13]: 96%
inhibition at 750 g/ha [2, 14]: 86%
inhibition at 1500 g/ha [2, 15]: 100%
inhibition at 1500 g/ha [2, 16]: 100%
inhibition at 3000 g/ha [2, 15]: 100%
inhibition at 3000 g/ha [2, 16]: 100%
inhibition at 6000 g/ha [2, 15]: 100%
inhibition at 6000 g/ha [2, 16]: 100%
inhibition at 9000 g/ha [2, 15]: 100%
inhibition at 9000 g/ha [2, 16]: 100%
activity for killing Echinochloa spp. [2]: equivalent

From patent US4255183A, “Substituted phenyl urea and herbicides for use in paddy field” (Hokko Chemical Industry Co., Ltd., priority 1977, dated 1981)
